Reference: patent publication US8609413B2, “Neurons, astrocytes and oligodendrocytes differentiated from a mammalian pluripotent or neural stem cells exposed to a pyridine deriviative” (Research Development Foundation, priority 2007, dated 2013)
Entries after “also recorded” stand apart in the source; their conditions may differ.

What was measured:
[1] = test system: human ES cell-derived engineered neural tissues (ENTs); assay: Three-dimensional neuronal differentiation / engineered neural tissues (ENTs) from human ES cells; assay type: cell-based; settings: for number / density of rosettes in ENT: first steps of ENT formation, 1 month old ENTs; for non-neural cells / tissue within ENT (mesenchyma, dark pigmented zones), homogeneity: macroscopic view
Text: ENTs are 3-dimensional pieces of tissues derived from embryonic stem cells (ES) which resemble certain layers of human fetal brain.
For three-dimensional neuronal differentiation, 5-10 spheres were generated as described in differentiation protocol 2 and plated on a pre-cut patch of hydrophilic polytetrafluoroethylene (PTFE) membrane (confetti, 6 mm diameter, 0.4 μm, BioCell-Interface, La Chaux-de-Fonds, Switzerland). Next, the membrane was placed in a Millicell®-CM (0.4 μm) Culture Plate Insert (Millipore) on one ml of N2 medium. The medium was changed every 2-3 days. This method has been described for tissue slices previously (Stoppini et al., 1991) and has been recently adapted to ES cell-derived neural tissue by Preynat-Seauve et al. (attached manuscript).
Next, the activity of phenazopyridine was tested on neuronal differentiation in a three-dimensional culture system.

HS401 human ES cells = assay: Differentiation protocol 2 in HS401 cell line; assay type: cell-based; settings: 3 μM vs DMSO
Method: Two different protocols were used to induce neuronal differentiation of human ES cells. In the first protocol, human ES cells were mechanically dissociated into small aggregates and plated on laminin/polyornithine coated six-well plates. Cells were cultured 2 weeks in human SR medium (DMEM F-12 supplemented with 15% knockout serum (Gibco), non-essential amino acids, penicillin and streptomycin), followed by 4 weeks in N2 medium. Compounds were added throughout these first 6 weeks. Subsequently, cells were mechanically dissociated and replated on polyornithine/laminin-coated 6 well plates. Throughout the text, this first differentiation protocol will be referred to as “differentiation protocol 1”. The second differentiation protocol was derived from previously described differentiation conditions (Nat et al., 2007). In the second differentiation protocol, undifferentiated human ES cells were mechanically dissociated into small aggregates and cultured in suspension on low-attachment six-well plates. For the first 4 days, they were cultured in neuronal induction medium (DMEM F-12, N2 supplement, penicillin and streptomycin), which was changed to simple neuronal proliferation medium (DMEM F-12, N2 supplement, 20 ng/ml bFGF, penicillin and streptomycin) for 2 additional days. […]

H1 ES cells = assay: Real Time PCR of neural and non-neural markers during differentiation protocol 2; assay type: cell-based, human; settings: 3 μM
Method: Real Time PCR. Reactions were run on an ABI Prism 7900 HT detection system (Applied Biosystems). ALAS and GusB were used as housekeeping genes. […] Sequences of the primers are shown in supplementary table.
The kinetics of emergence of neural and non-neural markers in DMSO and 3 μM phenazopyridine-treated H1 ES cells were evaluated using real time PCR. […] Expression of non-neural markers was next evaluated. […] The inventors reasoned that the persistence of these markers could be temporary and therefore investigated their expression after four weeks of differentiation.

[2] = test system: human ES cell-derived neural precursors; assay: Two step differentiation: precursors replated without compound in neuronal differentiation medium; assay type: cell-based
Text: To investigate the potential of neural precursors generated through phenazopyridine treatment, cells exposed to DMSO or phenazopyridine for four weeks as in Example 2 were replated at low density (5×10^3 cells/cm^2) on polyornithine/laminin coated support in neuronal differentiation medium, and investigated for their phenotype at different time points. Cells were then immunostained for neuronal markers and alkaline phosphatase (marking undifferentiated ES cells) after one week and four weeks of differentiation. Immunostaining was performed for nestin, β3-tubulin, Sox1, Pax6, vimentin, GFAP, CNPase, v-Glut1, GAD67, tyrosine hydroxylase and alkaline phosphatase. […] Two different protocols were used to induce neuronal differentiation of human ES cells. In the first protocol, human ES cells were mechanically dissociated into small aggregates and plated on laminin/polyornithine coated six-well plates. Cells were cultured 2 weeks in human SR medium (DMEM F-12 supplemented with 15% knockout serum (Gibco), non-essential amino acids, penicillin and streptomycin), followed by 4 weeks in N2 medium. Compounds were added throughout these first 6 weeks. Subsequently, cells were mechanically dissociated and replated on polyornithine/laminin-coated 6 well plates. Throughout the text, this first differentiation protocol will be referred to as “differentiation protocol 1”. The second differentiation protocol was derived from previously described differentiation conditions (Nat et al., 2007). In the second differentiation protocol, undifferentiated human ES cells were mechanically dissociated into small aggregates and cultured in suspension on low-attachment six-well plates. For the first 4 days, they were cultured in neuronal induction medium (DMEM F-12, N2 supplement, penicillin and streptomycin), which was changed to simple neuronal proliferation medium (DMEM F-12, N2 supplement, 20 ng/ml bFGF, penicillin and streptomycin) for 2 additional days. Subsequently, aggregates were plated on polyornithine/laminin-coated six-well plates and maintained in simple neuronal proliferation medium for 7 days. Cells were then mechanically dissociated and replated in N2 medium at a density of 2×10^4 cells per cm^2 for two additional weeks. Compounds were added throughout these first 4 weeks. Cells were then replated at a density of 5′000 cells per cm^2 in neuronal differentiation medium (Neurobasal medium, B-27 supplement, BDNF (10 ng/ml), penicillin and streptomycin). Throughout the text, this second differentiation protocol will be referred as to “differentiation protocol 2”. […] To investigate the potential of neuronal precursors generated through phenazopyridine treatment, the inventors devised a two step differentiation protocol. Cells were first treated with 3 μM phenazopyridine for 4 weeks and subsequently replated in the absence of phenazopyridine. For the second step, the inventors cultured cells at low density (5×10^3 cells/cm^2) on polyornithine/laminin-coated support in neuronal differentiation medium and investigated their phenotype at different time points in three independent experiments.

Nc1ccc(/N=N/c2ccccc2)c(N)n1 [phenazopyridine]
quality of engineered neural tissues (ENTs) ([1]; 3 μM): substantially increased the quality
total number of neural tubes per three-dimensional culture ([1]; 2 weeks and 4 weeks of differentiation, vs control): significant increase
number / density of rosettes in ENT [1]: improved densities of rosettes
number / density of rosettes in ENT ([1]; listed as Phenazopyridine): increased the number of rosettes
non-neural cells / tissue within ENT (mesenchyma, dark pigmented zones), homogeneity ([1]; with vs without compound): decreased the incidence of cells differentiating into non-neuronal cells within ENT
non-neural cells / tissue within ENT (mesenchyma, dark pigmented zones), homogeneity ([1]; with vs without compound, listed as phenazopridine): displayed less mesenchyma (FIG. 3) and fewer dark pigmented zones; also recorded: more homogenous and appeared to contain a reduced amount of non-neural cells
cartilage by immunofluorescent staining of tenascin C in ENTs ([1]; with vs without compound): cartilage was not observed
morphology and dissociation observations in HS401 cell line (HS401 human ES cells): confirmed
expression of Oct-4 and brachyury (H1 ES cells; 2 weeks): increased
expression of forebrain (Mash1) and ventral hindbrain (Nkx2.2, HoxB4, Olig2) markers (H1 ES cells; 2 weeks): also upregulated
expression of α-fetoprotein (AFP) (H1 ES cells; 2 weeks): did not vary between both conditions
expression of early (Pax6, nestin), intermediate (β3-tubulin, vimentin) and late (β3-tubulin, Map2) neuronal differentiation markers (H1 ES cells; 2 weeks of differentiation, vs control): upregulation
expression of the same neural markers at 4 weeks (H1 ES cells; 4 weeks of differentiation): significant differences in the expression of the same markers at 4 weeks of differentiation were not observed
downregulation of Oct4 (H1 ES cells; four weeks of differentiation): > 1000 fold
downregulation of brachyury (H1 ES cells; four weeks of differentiation): > 10 fold
downregulation of α-fetoprotein (H1 ES cells; four weeks of differentiation): > 1000 fold
phenotype 4 weeks after replating ([2]; 3 μM for 4 weeks, then 4 weeks without compound): formed networks of neurons, astrocytes and oligodendrocytes; also recorded: slow-growing cell clusters homogeneously positive for nestin, β3-tubulin, Sox1 and vimentin, together with more mature neurons, astrocytes and oligodendrocyte progenitors
subtypes of neurons ([2]; 3 μM for 4 weeks, then one week without compound): mainly glutamatergic, GABAergic and rarely dopaminergic neurons; also recorded: glutamatergic, GABAergic and—more rarely—TH-positive neurons
phenotype one week after replating ([2]; 3 μM for 4 weeks, then replated without compound): started to differentiate into neurons; also recorded: relatively homogenous monolayer of neural precursors and early neurons with short neurites
alkaline phosphatase-positive (undifferentiated ES) cells ([2]; after replating, vs control): never detected alkaline phosphatase-positive cells
astrocytes or oligodendrocyte precursors (GFAP, CNPase immunostaining) ([2]; one week after replating): did not observe the presence of astrocytes or oligodendrocytes precursors
